In patent US6916921B2, “Steroid compounds, use of these compounds for the preparation of meiosis-regulating medicaments and method for the preparation of these compounds” (Schering AG, priority 2001, dated 2005):

Columns and labels:
rat oocytes = conditions: micromolar concentrations; rat CEO and DO arrested by IBMX; cited from earlier work
[1] = system: cumulus enclosed mouse oocytes; experiment: Mouse oocyte assay: activation of meiosis in cumulus enclosed oocytes in Hx-medium; assay type: cell-based; conditions: CEO in Hx-medium, 22 hours culture
Experimental: Testing of Meiosis-Activating Substances in the Mouse Oocyte Assay
Oocytes were obtained from immature female mice (C57BI/6J×DBA/2J F1-hybrids, Bomholtgaard, Denmark) weighing 13-16 grams, that were kept under controlled lighting and temperature. The mice received an intra-peritoneal injection of 0.2 ml gonadotropins (containing 10 IU PMSG, pregnant mare serum gonadotropin, Sigma Cat. No. G-4877) and 48 hours later the animals were killed by cervical dislocation.
Collection and Culture of Oocytes
The ovaries were dissected out and the oocytes were isolated in Hx-medium (see below) under a stereo microscope by manual rupture of the follicles using a pair of 27 gauge needles. Spherical, cumulus enclosed oocytes (CEO) displaying an intact germinal vesicle (GV) were placed in α-minimum essential medium (α-MEM without ribonucleosides, Gibco BRL, Cat. No. 22561) supplemented with 3 mM hypoxanthine (Sigma Cat. No. H-9377), 8 mg/ml Human Serum Albumin (HSA, State Serum Institute, Denmark), 0,23 mM pyruvate (Sigma, Cat. No. S-8636), 2 mM glutamine (Flow Cat. No. 16-801), 100 IU/ml penicillin and 100 μg/ml streptomycin (Flow Cat No. 16-700). This medium was designated Hx-medium.
The oocytes were rinsed three times in Hx-medium and cultured in 4-well multidishes (Nunclon, Denmark) in which each well contained 0.4 ml of Hx-medium and approx. 25 oocytes. One control (i.e. approx. 25 oocytes cultured in Hx-medium with no addition of test compound) was always run simultaneously with the test cultures, which were made with different concentrations of the compounds to be tested. The cultures were performed at 37° C. and 100% humidity with 5% CO2 in air. The culture time was 22 hours.
(§1) Oocytes arrested in meiosis are characterized by an intact nucleus with a prominent nucleolus, known as germinal vesicle (GV). Upon reinitiation of meiosis the nucleolus and the nuclear envelope disappear and this is characterized by a breakdown of the GV, which than is called germinal vesicle breakdown (GVB). Some hours later the oocyte complete a reductional division and elicit the first so called polar body (PB).
By the end of the culture period, the number of oocytes with germinal vesicle (GV) or germinal vesicle breakdown (GVB) and those with polar body (PB) was counted using a stereo microscope or an inverted microscope with differential interference contrast equipment. The percentage of oocytes with GVB per total number of oocytes and the percentage of oocytes with PB per total number of oocytes was calculated in the test cultures and compared to the control culture.

[2] = system: mouse preantral follicles; experiment: Mouse follicular culture system: activation of oocyte maturation; assay type: cell-based; conditions: for Activation [%] GVB / Follicles [n] GV / Follicles [n] GVB: added day 2 and 3, read at day 4
Experimental: Testing of Meiosis-Activating Substances in the Mouse Follicular Culture System
Follicles were obtained from 19-21 day-old immature female mice (C57BI/6J×CBA/J), that were kept under controlled lighting and temperature.
Collection of Serum and Culture of Follicles
Animals were anesthetized with ether, and blood was collected by means of eye extraction. After clotting, blood was centrifuged for 15 min at 4000×g, and serum was collected and stored at −20° C. until use. Ovaries were removed and placed in Leibovitz L-15 medium (Gibco Cat. No. 41300) supplemented with 1 mmol glutamine l^−1, 3 mg BSA ml^−1, 5 μg human transferrin ml^−1 (without iron), 5 μg insulin ml^−1 (culture-grade chemicals, Sigma, St. Louis, Mo.) at 37 °C.
Preantral follicles with a diameter of 170-190 μm were isolated mechanically with two 27-gauge needles attached to 1 ml syringe. They were placed and washed thereafter (3 times) in 4-well culture plates (Nunclon, Denmark) in α-minimum essential medium (α-MEM; Gibco Cat. No. 11900) supplemented with 2 mmol glutamine l^−1, 10 μg transferrin ml^−1 and 10 μg insulin ml and with 3 mg BSA ml^−1.
Follicles of 170-190 μm with normal morphological appearence, i.e. a central spherical oocyte, high density of granulosa cells, and a theca layer enclosing the entire follicle, were selected and individually cultured in 96-well culture plate (Nunclon, Denmark) inserts with 40 μl α-MEM culture medium supplemented with 50 μl immature mouse serum ml^−1, 5 μg insulin ml^−1, 2 mmol glutamine l^−1, 10 μg human transferrin ml^−1 and 0.2 IU FSH (Gonal F, Serono, Solna, Sweden). Without any oil cover follicles were cultured in a humidified incubator gassed with 5% CO2 in air at 37° C.
Start of culture was defined as day 0. Culture medium was exchanged every other day. The diameter of the follicles was measured each day using ×100 magnification and a calibrated micrometer. In addition, the survival rate of the follicles was checked by evaluation of degeneration (darkening of the follicle) and bursting (loss of the oocyte). The culture time was 4 days.
At day 2 and day 3 of culture test compound or vehicle at a volume of 1.72 μl was added to the culture medium. Test compounds were dissolved in ethanol (vehicle).
as §1, with “then” for “than”, “(GVB).” for “(GVB). Some hours later the oocyte complete a reductional division and elicit the first so called polar body (PB).”
At day 4, by the end of the culture period, follicles were checked for resumption of meiosis. The number of follicles having oocytes with germinal vesicle (GV) or germinal vesicle breakdown (GVB) was counted using a stereo microscope or an inverted microscope with differential interference contrast equipment. The percentage of follicles with GVB per total number of follicles was calculated in the test cultures and compared to the vehicle control culture.

## CC(C)=CCC[C@@H](C)[C@H]1CC=C2C3=C(CC[C@@]21C)[C@@]1(C)CC[C@H](O)C(C)(C)[C@@H]1CC3 [FF-MAS, 4,4-dimethyl-5α-cholesta-8,14,24-trien-3β-ol, reference compound]
Rat oocytes
  resumption of meiosis: able to induce resumption of meiosis in a dose-dependent manner
[1]; 10 μM
  Activation [%] GVB + PB: 46%
  Oocytes [n] GV: 13 n
  Oocytes [n] GVB: 6 n
  Oocytes [n] PB: 5 n
[2]; 10 μM
  Activation [%] GVB: 0%
  Follicles [n] GV: 9 n
  Follicles [n] GVB: 0 n
[2]; follicle culture system
  induction of maturation / activation of meiosis in a follicle culture system: not able to induce maturation

## C[C@H](CN1CCCCC1)[C@H]1CC=C2C3=C(CC[C@@]21C)[C@@]1(C)CC[C@H](O)C(C)(C)[C@@H]1CC3 [Example 1, (20S)-20-[(piperidin-1-yl)methyl]-4,4-dimethyl-5α-pregna-8,14-dien-3β-ol]
[1]; 0,1 μM
  Activation [%] GVB + PB: 39%
  Oocytes [n] GV: 14 n
  Oocytes [n] GVB: 7 n
  Oocytes [n] PB: 2 n
[1]; 1 μM
  Activation [%] GVB + PB: 75%
  Oocytes [n] GV: 6 n
  Oocytes [n] GVB: 12 n
  Oocytes [n] PB: 6 n
[1]; 10 μM
  Activation [%] GVB + PB: 95%
  Oocytes [n] GV: 1 n
  Oocytes [n] GVB: 14 n
  Oocytes [n] PB: 7 n
[2]; 1 μM
  Activation [%] GVB: 78%
  Follicles [n] GV: 2 n
  Follicles [n] GVB: 7 n
[2]; 3 μM
  Activation [%] GVB: 100%
  Follicles [n] GV: 0 n
  Follicles [n] GVB: 9 n
[2]; 10 μM
  Activation [%] GVB: 100%
  Follicles [n] GV: 0 n
  Follicles [n] GVB: 8 n
